Results: PubChem BioAssay (NCI)
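Following 48 hours of exposure in 96-well plates, responses at five concentrations were used to interpolate endpoints linearly. At the TGI there is no net growth.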

Columns and labels:
Assay in all cases: NCI anticancer screen, dose series, 48 h
786-0 renal = tested on: 786-0 renal
A549 NSCLC = tested on: A549 NSCLC
ACHN renal = tested on: ACHN renal
BT-549 breast = tested on: BT-549 breast
CAKI-1 renal = tested on: CAKI-1 renal
CCRF-CEM leukemia = tested on: CCRF-CEM leukemia
DU-145 prostate = tested on: DU-145 prostate
EKVX NSCLC = tested on: EKVX NSCLC
HCT-116 colon = tested on: HCT-116 colon
HCT-15 colon = tested on: HCT-15 colon
HL-60(TB) leukemia = tested on: HL-60(TB) leukemia
HOP-62 NSCLC = tested on: HOP-62 NSCLC
HOP-92 NSCLC = tested on: HOP-92 NSCLC
HS 578T breast = tested on: HS 578T breast
HT29 colon = tested on: HT29 colon
IGROV1 ovarian = tested on: IGROV1 ovarian
K-562 leukemia = tested on: K-562 leukemia
KM12 colon = tested on: KM12 colon
LOX IMVI melanoma = tested on: LOX IMVI melanoma
M14 melanoma = tested on: M14 melanoma
MALME-3M melanoma = tested on: MALME-3M melanoma
MCF7 breast = tested on: MCF7 breast
MDA-MB-231 breast = tested on: MDA-MB-231 breast
MDA-MB-435 = tested on: MDA-MB-435
MDA-N = tested on: MDA-N
MOLT-4 leukemia = tested on: MOLT-4 leukemia
NCI-H23 lung = tested on: NCI-H23 lung
NCI-H460 lung = tested on: NCI-H460 lung
NCI-H522 lung = tested on: NCI-H522 lung
NCI/ADR-RES ovarian = tested on: NCI/ADR-RES ovarian
OVCAR-3 ovarian = tested on: OVCAR-3 ovarian
OVCAR-4 ovarian = tested on: OVCAR-4 ovarian
OVCAR-5 ovarian = tested on: OVCAR-5 ovarian
OVCAR-8 ovarian = tested on: OVCAR-8 ovarian
PC-3 prostate = tested on: PC-3 prostate
RXF 393 renal = tested on: RXF 393 renal
SF-268 CNS = tested on: SF-268 CNS
SF-295 CNS = tested on: SF-295 CNS
SK-MEL-2 melanoma = tested on: SK-MEL-2 melanoma
SK-MEL-28 melanoma = tested on: SK-MEL-28 melanoma
SK-OV-3 ovarian = tested on: SK-OV-3 ovarian
SN12C renal = tested on: SN12C renal
SNB-19 CNS = tested on: SNB-19 CNS
SNB-75 CNS = tested on: SNB-75 CNS
SR leukemia = tested on: SR leukemia
SW-620 colon = tested on: SW-620 colon
T-47D breast = tested on: T-47D breast
TK-10 renal = tested on: TK-10 renal
U251 CNS = tested on: U251 CNS
UACC-257 melanoma = tested on: UACC-257 melanoma
UACC-62 melanoma = tested on: UACC-62 melanoma
UO-31 renal = tested on: UO-31 renal
A498 renal = tested on: A498 renal
COLO 205 colon = tested on: COLO 205 colon
HCC-2998 colon = tested on: HCC-2998 colon
NCI-H226 lung = tested on: NCI-H226 lung
RPMI-8226 leukemia = tested on: RPMI-8226 leukemia
SF-539 CNS = tested on: SF-539 CNS
SK-MEL-5 melanoma = tested on: SK-MEL-5 melanoma

Molecule `COc1ccc(C)cc1N1C(=O)C2ON(Cc3ccc(CC(N)=O)cc3)C(c3c4ccccc4c(Cl)c4ccccc34)C2C1=O` (configuration not stated) has a TGI (786-0 renal) of 50.2 µM, a TGI (A549 NSCLC) of over 100 µM and a TGI (ACHN renal) of 75 µM. The TGI (BT-549 breast) was 74.5 µM, the TGI (CAKI-1 renal) was 76.5 µM and the TGI (CCRF-CEM leukemia) was over 100 µM. The TGI (DU-145 prostate) was 86.5 µM, the TGI (EKVX NSCLC) was 98 µM and the TGI (HCT-116 colon) was 32.7 µM. For the same molecule, the TGI (HCT-15 colon) was 73.3 µM, the TGI (HL-60(TB) leukemia) was over 100 µM and the TGI (HOP-62 NSCLC) was 93.7 µM. For the same molecule, the TGI (HOP-92 NSCLC) was over 100 µM, the TGI (HS 578T breast) was over 100 µM and the TGI (HT29 colon) was 40.9 µM. It also gave a TGI (IGROV1 ovarian) of over 100 µM, a TGI (K-562 leukemia) of over 100 µM and a TGI (KM12 colon) of 29.1 µM. It also gave a TGI (LOX IMVI melanoma) of 54.7 µM, a TGI (M14 melanoma) of 38.8 µM and a TGI (MALME-3M melanoma) of over 100 µM. For the same molecule, the TGI (MCF7 breast) was over 100 µM, the TGI (MDA-MB-231 breast) was 49 µM and the TGI (MDA-MB-435) was 62.1 µM. For the same molecule, the TGI (MDA-N) was 33 µM, the TGI (MOLT-4 leukemia) was over 100 µM and the TGI (NCI-H23 lung) was 96.4 µM. The TGI (NCI-H460 lung) was 36.6 µM, the TGI (NCI-H522 lung) was over 100 µM and the TGI (NCI/ADR-RES ovarian) was 76.9 µM. It also gave a TGI (OVCAR-3 ovarian) of over 100 µM, a TGI (OVCAR-4 ovarian) of 84.6 µM and a TGI (OVCAR-5 ovarian) of 58.5 µM. The TGI (OVCAR-8 ovarian) was 84.6 µM, the TGI (PC-3 prostate) was over 100 µM and the TGI (RXF 393 renal) was 33.7 µM. The TGI (SF-268 CNS) was 82.3 µM, the TGI (SF-295 CNS) was 69.1 µM and the TGI (SK-MEL-2 melanoma) was 44.5 µM. It also gave a TGI (SK-MEL-28 melanoma) of over 100 µM, a TGI (SK-OV-3 ovarian) of over 100 µM and a TGI (SN12C renal) of 45.7 µM. The TGI (SNB-19 CNS) was over 100 µM, the TGI (SNB-75 CNS) was 38.9 µM and the TGI (SR leukemia) was 48.6 µM. For the same molecule, the TGI (SW-620 colon) was over 100 µM, the TGI (T-47D breast) was over 100 µM and the TGI (TK-10 renal) was 49.5 µM. It also gave a TGI (U251 CNS) of 60.4 µM, a TGI (UACC-257 melanoma) of 33.2 µM and a TGI (UACC-62 melanoma) of 45.2 µM. It also gave a TGI (UO-31 renal) of 48 µM.

`O=C(/C=C/c1ccc(Cl)cc1)Oc1ccc(C=C2CCC/C(=C\c3ccc(OC(=O)/C=C/c4ccc(Cl)cc4)cc3)C2=O)cc1` gave a TGI (786-0 renal) of over 100 µM, a TGI (A498 renal) of over 100 µM and a TGI (A549 NSCLC) of over 100 µM. The TGI (ACHN renal) was over 100 µM, the TGI (BT-549 breast) was over 100 µM and the TGI (CAKI-1 renal) was over 100 µM. For the same molecule, the TGI (COLO 205 colon) was over 100 µM, the TGI (DU-145 prostate) was over 100 µM and the TGI (EKVX NSCLC) was over 100 µM. It also gave a TGI (HCC-2998 colon) of over 100 µM, a TGI (HCT-116 colon) of over 100 µM and a TGI (HCT-15 colon) of over 100 µM. For the same molecule, the TGI (HOP-62 NSCLC) was over 100 µM, the TGI (HOP-92 NSCLC) was over 100 µM and the TGI (HS 578T breast) was over 100 µM. The TGI (HT29 colon) was over 100 µM, the TGI (IGROV1 ovarian) was over 100 µM and the TGI (K-562 leukemia) was over 100 µM. It also gave a TGI (KM12 colon) of over 100 µM, a TGI (LOX IMVI melanoma) of over 100 µM and a TGI (M14 melanoma) of over 100 µM. For the same molecule, the TGI (MALME-3M melanoma) was over 100 µM, the TGI (MCF7 breast) was over 100 µM and the TGI (MDA-MB-231 breast) was over 100 µM. For the same molecule, the TGI (MDA-MB-435) was over 100 µM, the TGI (MDA-N) was over 100 µM and the TGI (MOLT-4 leukemia) was over 100 µM. The TGI (NCI-H226 lung) was over 100 µM, the TGI (NCI-H23 lung) was over 100 µM and the TGI (NCI-H460 lung) was over 100 µM. The TGI (NCI-H522 lung) was over 100 µM, the TGI (NCI/ADR-RES ovarian) was over 100 µM and the TGI (OVCAR-3 ovarian) was over 100 µM. For the same molecule, the TGI (OVCAR-4 ovarian) was over 100 µM, the TGI (OVCAR-5 ovarian) was over 100 µM and the TGI (OVCAR-8 ovarian) was over 100 µM. It also gave a TGI (PC-3 prostate) of over 100 µM, a TGI (RPMI-8226 leukemia) of 97.1 µM and a TGI (RXF 393 renal) of over 100 µM. The TGI (SF-268 CNS) was over 100 µM, the TGI (SF-295 CNS) was over 100 µM and the TGI (SF-539 CNS) was over 100 µM. The TGI (SK-MEL-2 melanoma) was over 100 µM, the TGI (SK-MEL-28 melanoma) was over 100 µM and the TGI (SK-MEL-5 melanoma) was over 100 µM. It also gave a TGI (SK-OV-3 ovarian) of over 100 µM, a TGI (SN12C renal) of over 100 µM and a TGI (SNB-19 CNS) of over 100 µM. For the same molecule, the TGI (SNB-75 CNS) was over 100 µM, the TGI (SW-620 colon) was over 100 µM and the TGI (T-47D breast) was over 100 µM. The TGI (TK-10 renal) was over 100 µM, the TGI (U251 CNS) was over 100 µM and the TGI (UACC-257 melanoma) was over 100 µM. For the same molecule, the TGI (UACC-62 melanoma) was over 100 µM and the TGI (UO-31 renal) was over 100 µM.

`CCn1c2c(c3ccccc3c1=O)C(=O)c1ccccc1-2` showed a TGI (786-0 renal) of over 100 µM, a TGI (A498 renal) of over 100 µM and a TGI (A549 NSCLC) of over 100 µM. It also gave a TGI (BT-549 breast) of over 100 µM, a TGI (CAKI-1 renal) of over 100 µM and a TGI (CCRF-CEM leukemia) of over 100 µM. It also gave a TGI (COLO 205 colon) of over 100 µM, a TGI (DU-145 prostate) of over 100 µM and a TGI (EKVX NSCLC) of over 100 µM. It also gave a TGI (HCT-116 colon) of over 100 µM, a TGI (HCT-15 colon) of over 100 µM and a TGI (HL-60(TB) leukemia) of over 100 µM. It also gave a TGI (HOP-62 NSCLC) of over 100 µM, a TGI (HOP-92 NSCLC) of over 100 µM and a TGI (HS 578T breast) of over 100 µM. It also gave a TGI (HT29 colon) of over 100 µM, a TGI (IGROV1 ovarian) of over 100 µM and a TGI (K-562 leukemia) of over 100 µM. The TGI (KM12 colon) was over 100 µM, the TGI (LOX IMVI melanoma) was over 100 µM and the TGI (M14 melanoma) was over 100 µM. For the same molecule, the TGI (MALME-3M melanoma) was over 100 µM, the TGI (MCF7 breast) was over 100 µM and the TGI (MDA-MB-231 breast) was over 100 µM. The TGI (MDA-MB-435) was over 100 µM, the TGI (MDA-N) was over 100 µM and the TGI (MOLT-4 leukemia) was over 100 µM. It also gave a TGI (NCI-H226 lung) of over 100 µM, a TGI (NCI-H23 lung) of over 100 µM and a TGI (NCI-H522 lung) of over 100 µM. For the same molecule, the TGI (NCI/ADR-RES ovarian) was over 100 µM, the TGI (OVCAR-3 ovarian) was over 100 µM and the TGI (OVCAR-4 ovarian) was over 100 µM. It also gave a TGI (OVCAR-5 ovarian) of over 100 µM, a TGI (OVCAR-8 ovarian) of over 100 µM and a TGI (PC-3 prostate) of over 100 µM. The TGI (RPMI-8226 leukemia) was over 100 µM, the TGI (SF-268 CNS) was over 100 µM and the TGI (SF-295 CNS) was over 100 µM. For the same molecule, the TGI (SF-539 CNS) was 39.7 µM, the TGI (SK-MEL-2 melanoma) was over 100 µM and the TGI (SK-MEL-28 melanoma) was over 100 µM. The TGI (SK-MEL-5 melanoma) was over 100 µM, the TGI (SK-OV-3 ovarian) was over 100 µM and the TGI (SN12C renal) was over 100 µM. It also gave a TGI (SNB-19 CNS) of over 100 µM, a TGI (SNB-75 CNS) of over 100 µM and a TGI (SW-620 colon) of over 100 µM. The TGI (T-47D breast) was over 100 µM, the TGI (TK-10 renal) was over 100 µM and the TGI (U251 CNS) was over 100 µM. It also gave a TGI (UACC-257 melanoma) of over 100 µM, a TGI (UACC-62 melanoma) of over 100 µM and a TGI (UO-31 renal) of over 100 µM.
